# Experimental data reported in ChEMBL document CHEMBL2311520, “Total synthesis of AMF-26, an antitumor agent for inhibition of the Golgi system, targeting ADP-ribosylation factor 1” (J Med Chem, 2013).
# Calls of active or inactive are those of the source. The calls are words filed in the database; no cut-off is given here.
# Tests used:
# [1] = test system: HBC4; assay: Induction of golgi disassembly in human HBC4 cells assessed as presence of GBF1 in cytoplasm at 0.1 to 1 uM after 1 hr by immunofluorescence microscopy; format: functional, cell-based
# [2] = test system: BSY-1; assay: Induction of golgi disassembly in human BSY1 cells assessed as presence of GBF1 in cytoplasm at 0.1 to 1 uM after 1 hr by immunofluorescence microscopy; format: functional, cell-based
# [3] = Induction of golgi disassembly in human HBC4 cells assessed as presence of GBF1 in cytoplasm after 1 hr by immunofluorescence microscopy; format: functional, cell-based
# [4] = Induction of golgi disassembly in human BSY1 cells assessed as presence of GBF1 in cytoplasm after 1 hr by immunofluorescence microscopy; format: functional, cell-based; conditions: bsy-1
# [5] = Growth inhibition of human HBC4 cells after 48 hrs by Sulforhodamine B assay; format: functional
# [6] = Growth inhibition of human BSY1 cells after 48 hrs by Sulforhodamine B assay; format: functional; conditions: BSY-1, 48 h
# [7] = test system: PC-3; assay: Growth inhibition of human PC3 cells after 48 hrs by Sulforhodamine B assay; format: functional; conditions: PC-3, 48 h
# [8] = test system: DU-145; assay: Growth inhibition of human DU145 cells after 48 hrs by Sulforhodamine B assay; format: functional; conditions: DU-145, 48 h
# [9] = test system: MKN-74; assay: Growth inhibition of human MKN74 cells after 48 hrs by Sulforhodamine B assay; format: functional; conditions: MKN-74, 48 h
# [10] = test system: MKN-7; assay: Growth inhibition of human MKN7 cells after 48 hrs by Sulforhodamine B assay; format: functional; conditions: MKN-7, 48 h
# [11] = test system: MKN-28; assay: Growth inhibition of human MKN28 cells after 48 hrs by Sulforhodamine B assay; format: functional; conditions: MKN-28, 48 h
# [12] = test system: St-4; assay: Growth inhibition of human St-4 cells after 48 hrs by Sulforhodamine B assay; format: functional; conditions: St-4, 48 h
# [13] = Growth inhibition of human RXF631L cells after 48 hrs by Sulforhodamine B assay; format: functional; conditions: RXF 631, 48 h
# [14] = test system: ACHN; assay: Growth inhibition of human ACHN cells after 48 hrs by Sulforhodamine B assay; format: functional
# [15] = test system: SK-OV-3; assay: Growth inhibition of human SKOV3 cells after 48 hrs by Sulforhodamine B assay; format: functional; conditions: SK-OV-3, 48 h
# [16] = test system: OVCAR-3; assay: Growth inhibition of human OVCAR3 cells after 48 hrs by Sulforhodamine B assay; format: functional; conditions: OVCAR-3, 48 h
# [17] = test system: OVCAR-5; assay: Growth inhibition of human OVCAR5 cells after 48 hrs by Sulforhodamine B assay; format: functional; conditions: OVCAR-5, 48 h
# [18] = test system: LOX IMVI; assay: Growth inhibition of human LOXIMVI cells after 48 hrs by Sulforhodamine B assay; format: functional
# [19] = test system: DMS-114; assay: Growth inhibition of human DMS114 cells after 48 hrs by Sulforhodamine B assay; format: functional; conditions: DMS-114, 48 h
# [20] = test system: A549; assay: Growth inhibition of human A549 cells after 48 hrs by Sulforhodamine B assay; format: functional; conditions: A549, 48 h
# [21] = test system: DMS-273; assay: Growth inhibition of human DMS273 cells after 48 hrs by Sulforhodamine B assay; format: functional; conditions: DMS-273, 48 h
# [22] = test system: NCI-H460; assay: Growth inhibition of human NCI-H460 cells after 48 hrs by Sulforhodamine B assay; format: functional; conditions: NCI-H460, 48 h
# [23] = test system: NCI-H522; assay: Growth inhibition of human NCI-H522 cells after 48 hrs by Sulforhodamine B assay; format: functional; conditions: NCI-H522, 48 h
# [24] = test system: NCI-H23; assay: Growth inhibition of human NCI-H23 cells after 48 hrs by Sulforhodamine B assay; format: functional; conditions: NCI-H23, 48 h
# [25] = test system: HCT-116; assay: Growth inhibition of human HCT116 cells after 48 hrs by Sulforhodamine B assay; format: functional; conditions: HCT-116, 48 h
# [26] = test system: HCT-15; assay: Growth inhibition of human HCT15 cells after 48 hrs by Sulforhodamine B assay; format: functional; conditions: HCT-15, 48 h
# [27] = test system: SNB-78; assay: Growth inhibition of human SNB-78 cells after 48 hrs by Sulforhodamine B assay; format: functional; conditions: SNB-78, 48 h
# [28] = Growth inhibition of human HCC2998 cells after 48 hrs by Sulforhodamine B assay; format: functional; conditions: HCC 2998, 48 h
# [29] = test system: SF-539; assay: Growth inhibition of human SF539 cells after 48 hrs by Sulforhodamine B assay; format: functional; conditions: SF-539, 48 h
# [30] = test system: SF-295; assay: Growth inhibition of human SF295 cells after 48 hrs by Sulforhodamine B assay; format: functional; conditions: SF-295, 48 h
# [31] = test system: U-251; assay: Growth inhibition of human U251 cells after 48 hrs by Sulforhodamine B assay; format: functional; conditions: U-251, 48 h
# [32] = test system: SF-268; assay: Growth inhibition of human SF268 cells after 48 hrs by Sulforhodamine B assay; format: functional; conditions: SF-268, 48 h
# [33] = test system: MCF7; assay: Growth inhibition of human MCF7 cells after 48 hrs by Sulforhodamine B assay; format: functional; conditions: MCF7, 48 h
# [34] = Growth inhibition of human HBC5 cells after 48 hrs by Sulforhodamine B assay; format: functional; conditions: HBC5, 48 h
# [35] = test system: MKN-45; assay: Growth inhibition of human MKN45 cells after 48 hrs by Sulforhodamine B assay; format: functional; conditions: MKN-45, 48 h
# [36] = Growth inhibition of human MKN1 cells after 48 hrs by Sulforhodamine B assay; format: functional; conditions: MKN-1, 48 h
# [37] = test system: OVCAR-4; assay: Growth inhibition of human OVCAR4 cells after 48 hrs by Sulforhodamine B assay; format: functional; conditions: OVCAR-4, 48 h
# [38] = test system: OVCAR-8; assay: Growth inhibition of human OVCAR8 cells after 48 hrs by Sulforhodamine B assay; format: functional; conditions: OVCAR-8, 48 h
# [39] = test system: NCI-H226; assay: Growth inhibition of human NCI-H226 cells after 48 hrs by Sulforhodamine B assay; format: functional; conditions: NCI-H226, 48 h
# [40] = test system: KM12; assay: Growth inhibition of human KM12 cells after 48 hrs by Sulforhodamine B assay; format: functional; conditions: KM12, 48 h
# [41] = test system: HT-29; assay: Growth inhibition of human HT-29 cells after 48 hrs by Sulforhodamine B assay; format: functional; conditions: HT-29, 48 h
# [42] = test system: SNB-75; assay: Growth inhibition of human SNB75 cells after 48 hrs by Sulforhodamine B assay; format: functional; conditions: SNB-75, 48 h
# [43] = test system: MDA-MB-231; assay: Growth inhibition of human MDA-MB-231 cells after 48 hrs by Sulforhodamine B assay; format: functional; conditions: MDA-MB-231, 48 h
compound,measurement,setting,value
CC/C(=C\C=C\[C@@H]1[C@H]2[C@H](C)[C@@H](O)[C@H](C)C[C@@H]2C=C[C@@H]1C)C(=O)NCc1cccnc1,Activity,[1],Active
same,Activity,[2],Active
same,EC50,[3],340 nM
same,EC50,[4],850 nM
same,GI50,"[5]; Homo sapiens, HBC4, 48 h, read-out: GI50",550 nM
same,GI50,[6]; read-out: GI50,190 nM
C/C(=C\C=C\[C@@H]1[C@H]2[C@H](C)[C@@H](O)[C@H](C)C[C@@H]2C=C[C@@H]1C)C(=O)NCc1cccnc1 (stereo in doubt; form 1),GI50,[7]; read-out: logGI50 (converted),45.7 nM
same,GI50,[8]; read-out: logGI50 (converted),245 nM
same,GI50,[9]; read-out: logGI50 (converted),56.2 nM
same,GI50,[10]; read-out: logGI50 (converted),50.1 nM
same,GI50,[11]; read-out: logGI50 (converted),79.4 nM
same,GI50,[12]; read-out: logGI50 (converted),195 nM
same,GI50,[13]; read-out: logGI50 (converted),53.7 nM
same,GI50,[14]; read-out: logGI50 (converted),47.9 nM
same,GI50,[15]; read-out: logGI50 (converted),41.7 nM
same,GI50,[16]; read-out: logGI50 (converted),33.1 nM
same,GI50,[17]; read-out: logGI50 (converted),38.9 nM
same,GI50,[18]; read-out: logGI50 (converted),22.9 nM
same,GI50,[19]; read-out: logGI50 (converted),39.8 nM
same,GI50,[20]; read-out: logGI50 (converted),57.5 nM
same,GI50,[21]; read-out: logGI50 (converted),53.7 nM
same,GI50,[22]; read-out: logGI50 (converted),91.2 nM
same,GI50,[23]; read-out: logGI50 (converted),123 nM
same,GI50,[24]; read-out: logGI50 (converted),53.7 nM
same,GI50,[25]; read-out: logGI50 (converted),40.7 nM
same,GI50,[26]; read-out: logGI50 (converted),70.8 nM
same,GI50,[27]; read-out: logGI50 (converted),51.3 nM
same,GI50,[28]; read-out: logGI50 (converted),39.8 nM
same,GI50,[29]; read-out: logGI50 (converted),52.5 nM
same,GI50,[30]; read-out: logGI50 (converted),58.9 nM
same,GI50,[31]; read-out: logGI50 (converted),58.9 nM
same,GI50,[32]; read-out: logGI50 (converted),44.7 nM
same,GI50,[33]; read-out: logGI50 (converted),42.7 nM
same,GI50,[34]; read-out: logGI50 (converted),34.7 nM
same,GI50,[5]; read-out: logGI50 (converted),41.7 nM
same,GI50,[35]; read-out: logGI50 (converted),31.6 nM
same,GI50,[36]; read-out: logGI50 (converted),30.2 nM
same,GI50,[37]; read-out: logGI50 (converted),31.6 nM
same,GI50,[38]; read-out: logGI50 (converted),39.8 nM
same,GI50,[39]; read-out: logGI50 (converted),23.4 nM
same,GI50,[40]; read-out: logGI50 (converted),35.5 nM
same,GI50,[41]; read-out: logGI50 (converted),33.9 nM
same,GI50,[42]; read-out: logGI50 (converted),23.4 nM
same,GI50,[43]; read-out: logGI50 (converted),24 nM
same,GI50,[6]; read-out: logGI50 (converted),12.6 nM
C/C(=C\C=C\[C@@H]1[C@H]2[C@H](C)[C@@H](O)[C@H](C)C[C@@H]2C=C[C@@H]1C)C(=O)NCc1cccnc1 (stereo in doubt; form 2),GI50,[7]; read-out: pGI50 (converted),46.8 nM
same,GI50,[8]; read-out: pGI50 (converted),219 nM
same,GI50,[9]; read-out: pGI50 (converted),81.3 nM
same,GI50,[10]; read-out: pGI50 (converted),66.1 nM
same,GI50,[11]; read-out: pGI50 (converted),83.2 nM
same,GI50,[12]; read-out: pGI50 (converted),214 nM
same,GI50,[13]; read-out: pGI50 (converted),112 nM
same,GI50,[14]; read-out: pGI50 (converted),81.3 nM
same,GI50,[15]; read-out: pGI50 (converted),44.7 nM
same,GI50,[16]; read-out: pGI50 (converted),46.8 nM
same,GI50,[17]; read-out: pGI50 (converted),41.7 nM
same,GI50,[18]; read-out: GI50,33.1 nM
same,GI50,[18]; read-out: pGI50 (converted),33.1 nM
same,GI50,[19]; read-out: pGI50 (converted),52.5 nM
same,GI50,[20]; read-out: pGI50 (converted),51.3 nM
same,GI50,[21]; read-out: pGI50 (converted),79.4 nM
same,GI50,[22]; read-out: pGI50 (converted),174 nM
same,GI50,[23]; read-out: pGI50 (converted),191 nM
same,GI50,[24]; read-out: pGI50 (converted),60.3 nM
same,GI50,[25]; read-out: pGI50 (converted),74.1 nM
same,GI50,[26]; read-out: pGI50 (converted),126 nM
same,GI50,[27]; read-out: pGI50 (converted),58.9 nM
same,GI50,[28]; read-out: pGI50 (converted),47.9 nM
same,GI50,[29]; read-out: pGI50 (converted),58.9 nM
same,GI50,[30]; read-out: pGI50 (converted),100 nM
same,GI50,[31]; read-out: pGI50 (converted),70.8 nM
same,GI50,[32]; read-out: pGI50 (converted),51.3 nM
same,GI50,[33]; read-out: pGI50 (converted),47.9 nM
same,GI50,[34]; read-out: pGI50 (converted),41.7 nM
same,GI50,"[5]; Homo sapiens, HBC4, 48 h, read-out: logGI50 (converted)",46.8 nM
same,GI50,[35]; read-out: GI50,27.5 nM
same,GI50,[35]; read-out: pGI50 (converted),27.5 nM
same,GI50,[36]; read-out: GI50,36.3 nM
same,GI50,[36]; read-out: pGI50 (converted),36.3 nM
same,GI50,[37]; read-out: GI50,34.7 nM
same,GI50,[37]; read-out: pGI50 (converted),34.7 nM
same,GI50,[38]; read-out: GI50,37.2 nM
same,GI50,[38]; read-out: pGI50 (converted),37.1 nM
same,GI50,[39]; read-out: GI50,30.9 nM
same,GI50,[39]; read-out: pGI50 (converted),30.9 nM
same,GI50,[40]; read-out: GI50,35.5 nM
same,GI50,[40]; read-out: pGI50 (converted),35.5 nM
same,GI50,[41]; read-out: GI50,33.9 nM
same,GI50,[41]; read-out: pGI50 (converted),33.9 nM
same,GI50,[42]; read-out: GI50,30.2 nM
same,GI50,[42]; read-out: pGI50 (converted),30.2 nM
same,GI50,[43]; read-out: GI50,22.9 nM
same,GI50,[43]; read-out: pGI50 (converted),22.9 nM
same,GI50,[6]; read-out: GI50,18.2 nM
same,GI50,[6]; read-out: pGI50 (converted),18.2 nM
